≈ marks a conversion by molar mass, not a printed value. Calls of active or inactive are those of the source. The rule behind the calls is not given here.
Tested on: Candida albicans
Experiment: Antifungal activity against Candida albicans assessed as growth inhibition by serial plate dilution method
Format: functional

**Q.** Which MIC does the source give for `COc1ccc(Br)c(C(=O)NN2C(=O)CSC2c2ccc([N+](=O)[O-])cc2)c1` (stereo unspecified) here?
**A.** The MIC was 6.25 µg/mL (≈ 13.8 µM).

**Q.** How did the MIC turn out when `COc1ccc(Br)c(C(=O)NN2C(=O)CSC2c2cccc3cc(OC)ccc23)c1` (stereo unspecified) was run?
**A.** The MIC was 6.25 µg/mL (≈ 12.8 µM).

**Q.** For `COc1ccc(C2SCC(=O)N2NC(=O)c2cc(OC)ccc2Br)c(OC)c1` (stereo unspecified), which MIC is on record?
**A.** The MIC was 3.12 µg/mL (≈ 6.69 µM).

**Q.** How did the MIC turn out when `COc1ccc(Br)c(C(=O)NN2C(=O)CSC2c2ccccc2)c1` (stereo unspecified) was run?
**A.** The MIC was 6.25 µg/mL (≈ 15.3 µM).

Tested on: Bacillus cereus
Experiment: Antibacterial activity against Bacillus cereus assessed as growth inhibition by serial plate dilution method
Format: functional

**Q.** For `COc1ccc(Br)c(C(=O)NN2C(=O)CSC2c2ccc([N+](=O)[O-])cc2)c1` (stereo unspecified), which MIC is on record?
**A.** The MIC was 6.25 µg/mL (≈ 13.8 µM).

**Q.** With `COc1ccc(Br)c(C(=O)NN2C(=O)CSC2c2cccc3cc(OC)ccc23)c1` (stereo unspecified) as the compound, how does the MIC read?
**A.** Its MIC is 12.5 µg/mL (≈ 25.6 µM).

**Q.** `COc1ccc(C2SCC(=O)N2NC(=O)c2cc(OC)ccc2Br)c(OC)c1` (stereo unspecified) was tested. Which MIC did it give?
**A.** The MIC was 6.25 µg/mL (≈ 13.4 µM).

**Q.** Which MIC does the source give for `COc1ccc(Br)c(C(=O)NN2C(=O)CSC2c2ccccc2)c1` (stereo unspecified) here?
**A.** The MIC was 25 µg/mL (≈ 61.4 µM).

Tested on: Pseudomonas aeruginosa
Experiment: Antibacterial activity against Pseudomonas aeruginosa ATCC 27853 assessed as growth inhibition by serial plate dilution method
Format: functional

**Q.** With `COc1ccc(Br)c(C(=O)NN2C(=O)CSC2c2ccc([N+](=O)[O-])cc2)c1` (stereo unspecified) as the compound, how does the MIC read?
**A.** Its MIC is 12.5 µg/mL (≈ 27.6 µM).

**Q.** For `COc1ccc(Br)c(C(=O)NN2C(=O)CSC2c2cccc3cc(OC)ccc23)c1` (stereo unspecified), which MIC is on record?
**A.** Its MIC is 6.25 µg/mL (≈ 12.8 µM).

**Q.** How did the MIC turn out when `COc1ccc(C2SCC(=O)N2NC(=O)c2cc(OC)ccc2Br)c(OC)c1` (stereo unspecified) was run?
**A.** Its MIC is 6.25 µg/mL (≈ 13.4 µM).

**Q.** With `COc1ccc(Br)c(C(=O)NN2C(=O)CSC2c2ccccc2)c1` (stereo unspecified) as the compound, how does the MIC read?
**A.** The MIC was 12.5 µg/mL (≈ 30.7 µM).

Tested on: Staphylococcus aureus
Experiment: Antibacterial activity against Staphylococcus aureus ATCC 25923 assessed as growth inhibition by serial plate dilution method
Format: functional

**Q.** `COc1ccc(Br)c(C(=O)NN2C(=O)CSC2c2ccc([N+](=O)[O-])cc2)c1` (stereo unspecified) was tested. Which MIC did it give?
**A.** Its MIC is 6.25 µg/mL (≈ 13.8 µM).

**Q.** `COc1ccc(Br)c(C(=O)NN2C(=O)CSC2c2cccc3cc(OC)ccc23)c1` (stereo unspecified) was tested. Which MIC did it give?
**A.** The MIC was 12.5 µg/mL (≈ 25.6 µM).

**Q.** Which MIC does the source give for `COc1ccc(C2SCC(=O)N2NC(=O)c2cc(OC)ccc2Br)c(OC)c1` (stereo unspecified) here?
**A.** The MIC was 12.5 µg/mL (≈ 26.7 µM).

**Q.** With `COc1ccc(Br)c(C(=O)NN2C(=O)CSC2c2ccccc2)c1` (stereo unspecified) as the compound, how does the MIC read?
**A.** Its MIC is 25 µg/mL (≈ 61.4 µM).

Tested on: Escherichia coli
Experiment: Antibacterial activity against Escherichia coli ATCC 25922 assessed as growth inhibition by serial plate dilution method
Format: functional

**Q.** Which MIC does the source give for `COc1ccc(Br)c(C(=O)NN2C(=O)CSC2c2ccc([N+](=O)[O-])cc2)c1` (stereo unspecified) here?
**A.** Its MIC is 6.25 µg/mL (≈ 13.8 µM).

**Q.** `COc1ccc(Br)c(C(=O)NN2C(=O)CSC2c2cccc3cc(OC)ccc23)c1` (stereo unspecified) was tested. Which MIC did it give?
**A.** Its MIC is 6.25 µg/mL (≈ 12.8 µM).

**Q.** How did the MIC turn out when `COc1ccc(C2SCC(=O)N2NC(=O)c2cc(OC)ccc2Br)c(OC)c1` (stereo unspecified) was run?
**A.** Its MIC is 12.5 µg/mL (≈ 26.7 µM).

**Q.** With `COc1ccc(Br)c(C(=O)NN2C(=O)CSC2c2ccccc2)c1` (stereo unspecified) as the compound, how does the MIC read?
**A.** Its MIC is 12.5 µg/mL (≈ 30.7 µM).

Tested on: Mus musculus
Experiment: Analgesic activity in Mus musculus […] albino (mouse) assessed as time taken to tail withdrawl at 100 mg/kg, po administered through intragastric tube after 180 min by tail flick test (reference value: 1.363 +/- 0.1297 secs)
Format: functional

**Q.** How did the Time turn out when `COc1ccc(Br)c(C(=O)NN2C(=O)CSC2c2ccc([N+](=O)[O-])cc2)c1` (stereo unspecified) was run?
**A.** The Time was 2.663 s.

**Q.** For `COc1ccc(Br)c(C(=O)NN2C(=O)CSC2c2cccc3cc(OC)ccc23)c1` (stereo unspecified), which Time is on record?
**A.** The Time was 2.53 s.

**Q.** Which Time does the source give for `COc1ccc(C2SCC(=O)N2NC(=O)c2cc(OC)ccc2Br)c(OC)c1` (stereo unspecified) here?
**A.** Its Time is 2.388 s.

**Q.** `COc1ccc(Br)c(C(=O)NN2C(=O)CSC2c2ccccc2)c1` (stereo unspecified) was tested. Which Time did it give?
**A.** The Time was 2.425 s.

Tested on: Mus musculus
Experiment: Analgesic activity in Mus musculus […] albino (mouse) assessed as time taken to tail withdrawl at 100 mg/kg, po administered through intragastric tube after 120 min by tail flick test (reference value: 1.363 +/- 0.1297 secs)
Format: functional

**Q.** `COc1ccc(Br)c(C(=O)NN2C(=O)CSC2c2ccc([N+](=O)[O-])cc2)c1` (stereo unspecified) was tested. Which Time did it give?
**A.** Its Time is 3.263 s.

**Q.** `COc1ccc(Br)c(C(=O)NN2C(=O)CSC2c2cccc3cc(OC)ccc23)c1` (stereo unspecified) was tested. Which Time did it give?
**A.** Its Time is 2.214 s.

**Q.** With `COc1ccc(C2SCC(=O)N2NC(=O)c2cc(OC)ccc2Br)c(OC)c1` (stereo unspecified) as the compound, how does the Time read?
**A.** Its Time is 3.075 s.

**Q.** With `COc1ccc(Br)c(C(=O)NN2C(=O)CSC2c2ccccc2)c1` (stereo unspecified) as the compound, how does the Time read?
**A.** The Time was 3.563 s.

Tested on: Mus musculus
Experiment: Analgesic activity in Mus musculus […] albino (mouse) assessed as time taken to tail withdrawl at 100 mg/kg, po administered through intragastric tube after 60 min by tail flick test (reference value: 1.363 +/- 0.1297 secs)
Format: functional

**Q.** `COc1ccc(Br)c(C(=O)NN2C(=O)CSC2c2ccc([N+](=O)[O-])cc2)c1` (stereo unspecified) was tested. Which Time did it give?
**A.** Its Time is 3.375 s.

**Q.** For `COc1ccc(Br)c(C(=O)NN2C(=O)CSC2c2cccc3cc(OC)ccc23)c1` (stereo unspecified), which Time is on record?
**A.** The Time was 1.954 s.

**Q.** For `COc1ccc(C2SCC(=O)N2NC(=O)c2cc(OC)ccc2Br)c(OC)c1` (stereo unspecified), which Time is on record?
**A.** Its Time is 3.175 s.

**Q.** With `COc1ccc(Br)c(C(=O)NN2C(=O)CSC2c2ccccc2)c1` (stereo unspecified) as the compound, how does the Time read?
**A.** The Time was 3.675 s.

Tested on: Rattus norvegicus
Experiment: Anti-inflammatory activity in Rattus norvegicus (rat) assessed as decrease in carrageenan-induced paw edema at 100 mg/kg, po administered 30 min prior to carrageenan challenge measured after 180 min (reference value: 2.275 +/- 0.1181 mm)
Format: functional

**Q.** With `COc1ccc(Br)c(C(=O)NN2C(=O)CSC2c2ccc([N+](=O)[O-])cc2)c1` (stereo unspecified) as the compound, how does the Activity read?
**A.** Its Activity is 1.975 mm.

**Q.** Which Activity does the source give for `COc1ccc(Br)c(C(=O)NN2C(=O)CSC2c2cccc3cc(OC)ccc23)c1` (stereo unspecified) here?
**A.** Its Activity is 1.98 mm.

**Q.** How did the Activity turn out when `COc1ccc(C2SCC(=O)N2NC(=O)c2cc(OC)ccc2Br)c(OC)c1` (stereo unspecified) was run?
**A.** The Activity was 1.9 mm.

**Q.** `COc1ccc(Br)c(C(=O)NN2C(=O)CSC2c2ccccc2)c1` (stereo unspecified) was tested. Which Activity did it give?
**A.** The Activity was 1.75 mm.

Tested on: Rattus norvegicus
Experiment: Anti-inflammatory activity in Rattus norvegicus (rat) assessed as decrease in carrageenan-induced paw edema at 100 mg/kg, po administered 30 min prior to carrageenan challenge measured after 120 min (reference value: 2.375 +/- 0.1436 mm)
Format: functional

**Q.** Which Activity does the source give for `COc1ccc(Br)c(C(=O)NN2C(=O)CSC2c2ccc([N+](=O)[O-])cc2)c1` (stereo unspecified) here?
**A.** The Activity was 1.8 mm.

**Q.** For `COc1ccc(Br)c(C(=O)NN2C(=O)CSC2c2cccc3cc(OC)ccc23)c1` (stereo unspecified), which Activity is on record?
**A.** Its Activity is 1.89 mm.

**Q.** With `COc1ccc(C2SCC(=O)N2NC(=O)c2cc(OC)ccc2Br)c(OC)c1` (stereo unspecified) as the compound, how does the Activity read?
**A.** The Activity was 2.15 mm.

**Q.** How did the Activity turn out when `COc1ccc(Br)c(C(=O)NN2C(=O)CSC2c2ccccc2)c1` (stereo unspecified) was run?
**A.** The Activity was 1.65 mm.

Tested on: Rattus norvegicus
Experiment: Anti-inflammatory activity in Rattus norvegicus (rat) assessed as decrease in carrageenan-induced paw edema at 100 mg/kg, po administered 30 min prior to carrageenan challenge measured after 60 min (reference value: 2.175 +/- 0.1797 mm)
Format: functional

**Q.** With `COc1ccc(Br)c(C(=O)NN2C(=O)CSC2c2ccc([N+](=O)[O-])cc2)c1` (stereo unspecified) as the compound, how does the Activity read?
**A.** Its Activity is 1.45 mm.

**Q.** How did the Activity turn out when `COc1ccc(Br)c(C(=O)NN2C(=O)CSC2c2cccc3cc(OC)ccc23)c1` (stereo unspecified) was run?
**A.** The Activity was 1.515 mm.

**Q.** With `COc1ccc(C2SCC(=O)N2NC(=O)c2cc(OC)ccc2Br)c(OC)c1` (stereo unspecified) as the compound, how does the Activity read?
**A.** Its Activity is 2.125 mm.

**Q.** Which Activity does the source give for `COc1ccc(Br)c(C(=O)NN2C(=O)CSC2c2ccccc2)c1` (stereo unspecified) here?
**A.** The Activity was 1.575 mm.

Tested on: Radical scavenging activity
Experiment: Antioxidant activity assessed as inhibition of DPPH radical generation at 800 ug/mL after 20 min by spectrophotometric analysis relative to control
Format: functional

**Q.** How did the inhibition turn out when `COc1ccc(Br)c(C(=O)NN2C(=O)CSC2c2ccc([N+](=O)[O-])cc2)c1` (stereo unspecified) was run?
**A.** The inhibition was 13%.

**Q.** For `COc1ccc(Br)c(C(=O)NN2C(=O)CSC2c2cccc3cc(OC)ccc23)c1` (stereo unspecified), which inhibition is on record?
**A.** The inhibition was 58.3%.

**Q.** For `COc1ccc(C2SCC(=O)N2NC(=O)c2cc(OC)ccc2Br)c(OC)c1` (stereo unspecified), which inhibition is on record?
**A.** Its inhibition is 71%.

**Q.** Which inhibition does the source give for `COc1ccc(Br)c(C(=O)NN2C(=O)CSC2c2ccccc2)c1` (stereo unspecified) here?
**A.** Its inhibition is 41.6%.

Tested on: Radical scavenging activity
Experiment: Antioxidant activity assessed as inhibition of DPPH radical generation at 400 ug/mL after 20 min by spectrophotometric analysis relative to control
Format: functional

**Q.** For `COc1ccc(Br)c(C(=O)NN2C(=O)CSC2c2ccc([N+](=O)[O-])cc2)c1` (stereo unspecified), which inhibition is on record?
**A.** The inhibition was 5.81%.

**Q.** With `COc1ccc(Br)c(C(=O)NN2C(=O)CSC2c2cccc3cc(OC)ccc23)c1` (stereo unspecified) as the compound, how does the inhibition read?
**A.** The inhibition was 52.4%.

**Q.** `COc1ccc(C2SCC(=O)N2NC(=O)c2cc(OC)ccc2Br)c(OC)c1` (stereo unspecified) was tested. Which inhibition did it give?
**A.** The inhibition was 33.2%.

**Q.** How did the inhibition turn out when `COc1ccc(Br)c(C(=O)NN2C(=O)CSC2c2ccccc2)c1` (stereo unspecified) was run?
**A.** Its inhibition is 18.1%.

Tested on: Radical scavenging activity
Experiment: Antioxidant activity assessed as inhibition of DPPH radical generation at 200 ug/mL after 20 min by spectrophotometric analysis relative to control
Format: functional

**Q.** How did the inhibition turn out when `COc1ccc(Br)c(C(=O)NN2C(=O)CSC2c2ccc([N+](=O)[O-])cc2)c1` (stereo unspecified) was run?
**A.** The inhibition was “inactive”.

**Q.** `COc1ccc(Br)c(C(=O)NN2C(=O)CSC2c2cccc3cc(OC)ccc23)c1` (stereo unspecified) was tested. Which inhibition did it give?
**A.** Its inhibition is 38.3%.

**Q.** Which inhibition does the source give for `COc1ccc(C2SCC(=O)N2NC(=O)c2cc(OC)ccc2Br)c(OC)c1` (stereo unspecified) here?
**A.** Its inhibition is 15.9%.

**Q.** Which inhibition does the source give for `COc1ccc(Br)c(C(=O)NN2C(=O)CSC2c2ccccc2)c1` (stereo unspecified) here?
**A.** The inhibition was 4.3%.
